According to PubChem BioAssay AID256 (DTP/NCI, 2004):
Values joined by “and” are separate entries in the source; they are usually repeats but may differ in a detail not shown here. Identical values can stand only once. Toxic doses and inconclusive results are not listed. How the source made its calls: active means survival T/C of 150% or more; inactive means T/C below 125% in these data.

Tested on: CD2F1 mice, L1210 leukemia ip, survival T/C
Test: NCI In Vivo Anticancer Drug Screen. Data for tumor model L1210 Leukemia (intraperitoneal) in CD2F1 (CDF1) mice
Conditions: higher = longer survival
Method in brief: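 Antitumor effect is scored in animals hosting a serially transplanted tumor. Values compare compound-dosed animals against vehicle-only controls as a simple quotient.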

[1] = endpoint: mean survival time, dose: 100.0 mg/kg/injection, schedule: Q01DX001 (ip), vehicle: saline
[2] = endpoint: mean survival time, dose: 400.0 mg/kg/injection, schedule: Q01DX001 (ip), vehicle: saline
[3] = endpoint: mean survival time, dose: 100.0 mg/kg/injection, schedule: Q01DX001 (ip), vehicle: saline with Tween-80
[4] = endpoint: mean survival time, dose: 100.0 mg/kg/injection, schedule: Q04DX002 (ip), vehicle: saline with Tween-80
[5] = endpoint: mean survival time, dose: 200.0 mg/kg/injection, schedule: Q01DX001 (ip), vehicle: saline with Tween-80
[6] = endpoint: mean survival time, dose: 200.0 mg/kg/injection, schedule: Q04DX002 (ip), vehicle: saline with Tween-80
[7] = endpoint: mean survival time, dose: 400.0 mg/kg/injection, schedule: Q01DX001 (ip), vehicle: saline with Tween-80
[8] = endpoint: mean survival time, dose: 400.0 mg/kg/injection, schedule: Q04DX002 (ip), vehicle: saline with Tween-80
[9] = endpoint: mean survival time, dose: 50.0 mg/kg/injection, schedule: Q01DX009 (ip), vehicle: saline with Tween-80
[10] = endpoint: mean survival time, dose: 100.0 mg/kg/injection, schedule: Q01DX009 (ip), vehicle: saline with Tween-80
[11] = endpoint: mean survival time, dose: 200.0 mg/kg/injection, schedule: Q01DX009 (ip), vehicle: saline with Tween-80
[12] = endpoint: mean survival time, dose: 200.0 mg/kg/injection, schedule: Q01DX001 (ip), vehicle: saline
[13] = endpoint: mean survival time, dose: 100.0 mg/kg/injection, schedule: Q04DX003 (ip), vehicle: saline with Tween-80
[14] = endpoint: mean survival time, dose: 200.0 mg/kg/injection, schedule: Q04DX003 (ip), vehicle: saline with Tween-80
[15] = endpoint: mean survival time, dose: 400.0 mg/kg/injection, schedule: Q04DX003 (ip), vehicle: saline with Tween-80
[16] = endpoint: mean survival time, dose: 400.0 mg/kg/injection, schedule: Q01DX009 (ip), vehicle: saline with Tween-80

Measured: T/C

COC(=O)C(N)CSCc1ccccc1 (stereo not drawn)
inactive: [1] 100 % of control | endpoint: mean survival time, dose: 100.0 mg/kg/injection, schedule: Q01DX009 (ip), vehicle: saline 102 % of control | endpoint: mean survival time, dose: 200.0 mg/kg/injection, schedule: Q01DX009 (ip), vehicle: saline 97 % of control | [2] 100 % of control | endpoint: mean survival time, dose: 400.0 mg/kg/injection, schedule: Q01DX009 (ip), vehicle: saline 98 % of control

CC1C2OC2C(C)S1(=O)=O (stereo not drawn)
inactive: [3] 100 % of control | [4] 93 % of control | [5] 101 % of control | [6] 101 % of control | [7] 101 % of control | [8] 89 % of control

O=c1c2ccccc2oc2ccccc12
inactive: [9] 95 % of control | [10] 100 % of control | [11] 93 % of control

CCCCOCN(COCCCC)c1ccccc1
inactive: [3] 109 % of control | [5] 103 % of control | [7] 97 % of control

NCCCNc1ccc([N+](=O)[O-])cc1
inactive: endpoint: mean survival time, dose: 75.0 mg/kg/injection, schedule: Q01DX001 (ip), vehicle: saline 98 % of control | endpoint: mean survival time, dose: 150.0 mg/kg/injection, schedule: Q01DX001 (ip), vehicle: saline 106 % of control | endpoint: mean survival time, dose: 300.0 mg/kg/injection, schedule: Q01DX001 (ip), vehicle: saline 98 % of control

O=C(C=C(C(F)(F)F)C(F)(F)F)c1cccc(C(F)(F)F)c1
inactive: endpoint: mean survival time, dose: 25.0 mg/kg/injection, schedule: Q04DX003 (ip), vehicle: saline with Tween-80 106 % of control | endpoint: mean survival time, dose: 50.0 mg/kg/injection, schedule: Q04DX003 (ip), vehicle: saline with Tween-80 106 % of control

CCCCCCCCC(CCCCCC)CCCCCCCC
inactive: [1] 96 % of control | [12] 96 % of control | [2] 97 % of control

O=C(CNC(=O)Nc1cccc(C(F)(F)F)c1)N/N=C/c1c(O)ccc2ccccc12
inactive: endpoint: mean survival time, dose: 12.5 mg/kg/injection, schedule: Q01DX009 (ip), vehicle: saline with Tween-80 94 % of control | endpoint: mean survival time, dose: 25.0 mg/kg/injection, schedule: Q01DX009 (ip), vehicle: saline with Tween-80 94 % of control | [9] 94 % of control and 96 % of control | [10] 100 % of control | [11] 100 % of control

O=[N+]([O-])c1ccc(COc2ccc(Cl)cc2)cc1
inactive: [13] 92 % of control | [14] 103 % of control | [15] 94 % of control

COC(=O)c1ccccc1Cn1c(C)cnc1C
inactive: endpoint: mean survival time, dose: 12.5 mg/kg/injection, schedule: Q01DX009 (ip), vehicle: saline 101 % of control | endpoint: mean survival time, dose: 25.0 mg/kg/injection, schedule: Q01DX009 (ip), vehicle: saline 93 % of control | endpoint: mean survival time, dose: 50.0 mg/kg/injection, schedule: Q01DX009 (ip), vehicle: saline 101 % of control and 105 % of control

N#C/C(=C1C=C/C(=N/O)C(Br)=C/1)c1ccccc1
inactive: [10] 108 % of control | [11] 96 % of control | [16] 95 % of control

CCC1CCCCC1(O)CC (stereo not drawn)
inactive: [13] 106 % of control | [14] 103 % of control | [15] 103 % of control

N#CCSc1nc(N)nc2nc[nH]c12
inactive: [10] 103 % of control | endpoint: mean survival time, dose: 100.0 mg/kg/injection, schedule: Q04DX003 (ip), vehicle: saline sonified 102 % of control | [11] 116 % of control | endpoint: mean survival time, dose: 200.0 mg/kg/injection, schedule: Q04DX003 (ip), vehicle: saline sonified 105 % of control | endpoint: mean survival time, dose: 400.0 mg/kg/injection, schedule: Q04DX003 (ip), vehicle: saline sonified 107 % of control

CCN(CC)c1nc(CCc2ccc(N(C)C)cc2)c2[nH]cnc2n1
inactive: endpoint: mean survival time, dose: 3.13 mg/kg/injection, schedule: Q01DX005 (ip), vehicle: other 94 % of control | endpoint: mean survival time, dose: 6.25 mg/kg/injection, schedule: Q01DX005 (ip), vehicle: other 93 % of control | endpoint: mean survival time, dose: 12.5 mg/kg/injection, schedule: Q01DX005 (ip), vehicle: other 93 % of control | endpoint: mean survival time, dose: 25.0 mg/kg/injection, schedule: Q01DX005 (ip), vehicle: other 89 % of control | endpoint: mean survival time, dose: 50.0 mg/kg/injection, schedule: Q01DX005 (ip), vehicle: other 89 % of control

CCOC(=O)NC1=C(N2CC2)C(=O)C(NC(=O)OCC)=C(N2CC2)C1=O
inactive: endpoint: mean survival time, dose: 1.25 mg/kg/injection, schedule: Q01DX009 (oral), vehicle: other 87 % of control | endpoint: mean survival time, dose: 1.25 mg/kg/injection, schedule: Q01DX009 (oral), vehicle: saline 98 % of control | endpoint: mean survival time, dose: 2.5 mg/kg/injection, schedule: Q01DX009 (oral), vehicle: other 97 % of control | endpoint: mean survival time, dose: 2.5 mg/kg/injection, schedule: Q01DX009 (oral), vehicle: saline 94 % of control | endpoint: mean survival time, dose: 4.0 mg/kg/injection, schedule: Q01DX009 (sc), vehicle: other 93 % of control | endpoint: mean survival time, dose: 10.0 mg/kg/injection, schedule: Q01DX009 (oral), vehicle: other 95 % of control | endpoint: mean survival time, dose: 16.0 mg/kg/injection, schedule: Q04DX003 (ip), vehicle: other 90 % of control | endpoint: mean survival time, dose: 20.0 mg/kg/injection, schedule: Q01DX009 (oral), vehicle: other 87 % of control | endpoint: median survival time, dose: 0.25 mg/kg/injection, schedule: Q01DX009 (ip), vehicle: saline with Tween-80 97 % of control | endpoint: median survival time, dose: 0.5 mg/kg/injection, schedule: Q01DX009 (ip), vehicle: saline with Tween-80 110 % of control | endpoint: median survival time, dose: 1.0 mg/kg/injection, schedule: Q08DX002 (ip), vehicle: saline with Tween-80 110 % of control | endpoint: median survival time, dose: 4.0 mg/kg/injection, schedule: Q01DX009 (ip), vehicle: saline with Tween-80 90 % of control

O=C1CSC(=S)N1/N=C/c1ccccc1Cl
inactive: endpoint: mean survival time, dose: 75.0 mg/kg/injection, schedule: Q01DX001 (ip), vehicle: other 96 % of control | endpoint: mean survival time, dose: 150.0 mg/kg/injection, schedule: Q01DX001 (ip), vehicle: other 96 % of control | endpoint: mean survival time, dose: 300.0 mg/kg/injection, schedule: Q01DX001 (ip), vehicle: other 94 % of control

CC([NH-])C([NH-])O.[Cl][Pt+2][Cl] (stereo not drawn)
inactive: endpoint: mean survival time, dose: 6.25 mg/kg/injection, schedule: Q04DX003 (ip), vehicle: saline with Tween-80 115 % of control

O=C(CCCl)Oc1ccc(Br)cc1
inactive: [10] 94 % of control | [13] 98 % of control | [11] 96 % of control | [14] 100 % of control | [16] 102 % of control | [15] 96 % of control

O/N=C1\C=C2C/C(=N/O)C=C2C1
inactive: [9] 100 % of control | [10] 96 % of control | [11] 96 % of control

O=c1[nH]c2ccc(Cl)cc2c2ccccc12
inactive: endpoint: mean survival time, dose: 100.0 mg/kg/injection, schedule: Q01DX001 (ip), vehicle: carboxymethylcellulose (CMC) 91 % of control | endpoint: mean survival time, dose: 200.0 mg/kg/injection, schedule: Q01DX001 (ip), vehicle: carboxymethylcellulose (CMC) 97 % of control | endpoint: mean survival time, dose: 400.0 mg/kg/injection, schedule: Q01DX001 (ip), vehicle: carboxymethylcellulose (CMC) 105 % of control

CCC(CC)(CC)CCS(=O)[O-].[C-]#[O+].[C-]#[O+].[Fe+6].[c-]1[c-][c-][cH-][c-]1
inactive: endpoint: mean survival time, dose: 50.0 mg/kg/injection, schedule: Q04DX002 (ip), vehicle: saline with Tween-80 93 % of control | [4] 93 % of control | [6] 104 % of control

CC1(C2CC(=O)OC2=O)OCCO1 (stereo not drawn)
inactive: endpoint: mean survival time, dose: 50.0 mg/kg/injection, schedule: Q01DX001 (ip), vehicle: saline 96 % of control | [1] 102 % of control | [12] 93 % of control

O=S(=O)(O)SCC1=NCCCCN1
inactive: [13] 101 % of control

O=CNc1ccc2c(c1)C(Br)c1ccccc1-2 (stereo not drawn)
inactive: [10] 93 % of control | [13] 97 % of control | [14] 100 % of control | [15] 88 % of control

CC(C)CC(C)(C)COP(=S)(OCC(C)(C)CC(C)C)OCC(C)(C)CC(C)C
inactive: [4] 91 % of control | [6] 91 % of control | [8] 102 % of control

OCC1OC(n2c(SCc3ccccc3)nc3ccccc32)C(O)C1O (stereo not drawn)
inactive: [1] 102 % of control | [12] 102 % of control | [2] 97 % of control

O=C1c2c(O)ccc(Cl)c2C(=O)c2c(O)ccc(Cl)c21
inactive: [10] 95 % of control | [11] 93 % of control | [16] 97 % of control

O=[N+]([O-])c1ccc(F)cc1
inactive: endpoint: mean survival time, dose: 10.0 mg/kg/injection, schedule: Q04DX003 (ip), vehicle: saline 104 % of control | endpoint: mean survival time, dose: 20.0 mg/kg/injection, schedule: Q04DX003 (ip), vehicle: saline 102 % of control | endpoint: mean survival time, dose: 40.0 mg/kg/injection, schedule: Q04DX003 (ip), vehicle: saline 102 % of control
